Tests used:
Interstitial collagenase = target: T1, Interstitial collagenase (Homo sapiens, UniProt P03956); test: Inhibition of human MMP-1
T1 sequence (P03956 whole entry): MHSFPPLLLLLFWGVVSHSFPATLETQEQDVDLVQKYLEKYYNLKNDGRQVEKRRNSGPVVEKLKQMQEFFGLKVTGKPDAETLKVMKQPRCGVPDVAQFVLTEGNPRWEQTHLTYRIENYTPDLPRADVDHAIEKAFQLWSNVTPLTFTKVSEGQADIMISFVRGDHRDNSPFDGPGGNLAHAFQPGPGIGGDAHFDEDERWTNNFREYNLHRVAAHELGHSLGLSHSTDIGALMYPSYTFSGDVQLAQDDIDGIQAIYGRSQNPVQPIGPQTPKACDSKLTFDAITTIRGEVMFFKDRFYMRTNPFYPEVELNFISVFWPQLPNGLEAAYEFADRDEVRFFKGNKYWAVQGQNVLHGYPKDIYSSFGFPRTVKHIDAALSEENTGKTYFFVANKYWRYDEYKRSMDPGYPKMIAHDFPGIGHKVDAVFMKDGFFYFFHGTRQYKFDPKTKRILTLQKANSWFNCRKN

Neutrophil collagenase = Neutrophil collagenase (Homo sapiens, UniProt P22894); test: Inhibition of human MMP-8
Neutrophil collagenase, sequence (P22894 whole entry): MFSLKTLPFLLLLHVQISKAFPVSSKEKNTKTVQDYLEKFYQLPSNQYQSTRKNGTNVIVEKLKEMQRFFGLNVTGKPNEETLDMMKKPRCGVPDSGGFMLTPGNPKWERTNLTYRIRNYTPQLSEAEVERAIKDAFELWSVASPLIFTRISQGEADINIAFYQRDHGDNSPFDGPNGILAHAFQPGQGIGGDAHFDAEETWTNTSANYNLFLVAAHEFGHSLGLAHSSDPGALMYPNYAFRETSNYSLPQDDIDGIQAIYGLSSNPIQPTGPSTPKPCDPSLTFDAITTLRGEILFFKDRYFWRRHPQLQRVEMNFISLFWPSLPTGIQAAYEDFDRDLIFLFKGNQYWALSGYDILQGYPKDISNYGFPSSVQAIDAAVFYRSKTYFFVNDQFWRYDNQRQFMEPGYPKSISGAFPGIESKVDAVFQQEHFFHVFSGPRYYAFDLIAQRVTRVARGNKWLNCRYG

[1] = target: Matrix metalloproteinase-9 (Homo sapiens, UniProt P14780); test: Inhibition of human MMP-9
Matrix metalloproteinase-9, sequence (P14780 whole entry): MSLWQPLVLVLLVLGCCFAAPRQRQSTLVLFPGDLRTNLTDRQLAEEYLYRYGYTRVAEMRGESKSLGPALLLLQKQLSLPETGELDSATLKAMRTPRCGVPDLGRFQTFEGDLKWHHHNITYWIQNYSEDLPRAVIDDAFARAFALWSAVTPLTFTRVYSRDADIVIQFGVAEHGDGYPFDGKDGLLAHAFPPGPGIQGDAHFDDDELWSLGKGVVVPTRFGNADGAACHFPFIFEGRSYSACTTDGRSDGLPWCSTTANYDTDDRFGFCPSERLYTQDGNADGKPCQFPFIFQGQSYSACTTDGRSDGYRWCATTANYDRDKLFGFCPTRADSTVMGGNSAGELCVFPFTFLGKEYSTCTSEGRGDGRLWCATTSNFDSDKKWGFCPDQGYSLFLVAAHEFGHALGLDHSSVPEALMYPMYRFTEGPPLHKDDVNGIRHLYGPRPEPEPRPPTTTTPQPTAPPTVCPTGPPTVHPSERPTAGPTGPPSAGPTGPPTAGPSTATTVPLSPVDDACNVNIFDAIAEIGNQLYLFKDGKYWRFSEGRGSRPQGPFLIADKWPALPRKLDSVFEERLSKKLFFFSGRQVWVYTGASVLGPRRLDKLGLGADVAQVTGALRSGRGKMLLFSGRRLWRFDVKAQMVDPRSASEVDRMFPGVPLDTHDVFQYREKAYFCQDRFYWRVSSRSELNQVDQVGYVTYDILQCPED

Stromelysin-1 = Stromelysin-1 (Homo sapiens, UniProt P08254); test: Inhibition of human MMP-3
Stromelysin-1, sequence (P08254 whole entry): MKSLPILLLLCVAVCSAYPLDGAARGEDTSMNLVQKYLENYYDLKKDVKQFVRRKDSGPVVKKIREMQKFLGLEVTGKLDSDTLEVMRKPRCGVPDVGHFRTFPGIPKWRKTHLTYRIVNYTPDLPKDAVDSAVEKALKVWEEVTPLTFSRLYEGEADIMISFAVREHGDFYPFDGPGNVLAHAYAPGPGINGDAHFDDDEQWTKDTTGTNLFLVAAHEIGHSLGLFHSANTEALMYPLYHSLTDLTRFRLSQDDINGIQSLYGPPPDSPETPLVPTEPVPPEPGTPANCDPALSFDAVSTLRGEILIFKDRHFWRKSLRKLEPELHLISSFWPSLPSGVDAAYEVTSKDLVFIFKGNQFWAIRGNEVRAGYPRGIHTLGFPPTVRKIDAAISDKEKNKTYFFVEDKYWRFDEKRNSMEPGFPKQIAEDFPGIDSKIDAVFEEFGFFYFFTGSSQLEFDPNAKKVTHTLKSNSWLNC

Matrilysin = target: T2, Matrilysin (Homo sapiens, UniProt P09237); test: Inhibition of human MMP-7
T2 sequence (P09237 whole entry): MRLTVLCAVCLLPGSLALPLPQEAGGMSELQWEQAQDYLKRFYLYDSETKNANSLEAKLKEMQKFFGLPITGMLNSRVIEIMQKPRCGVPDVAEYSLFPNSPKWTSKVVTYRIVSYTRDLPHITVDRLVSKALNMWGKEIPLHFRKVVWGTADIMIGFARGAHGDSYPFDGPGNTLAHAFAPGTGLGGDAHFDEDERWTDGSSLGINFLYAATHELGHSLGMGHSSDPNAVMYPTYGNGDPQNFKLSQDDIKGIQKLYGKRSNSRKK

[2] = target: 72 kDa type IV collagenase (Homo sapiens, UniProt P08253); test: Inhibition of human MMP-2
72 kDa type IV collagenase, sequence (P08253 whole entry): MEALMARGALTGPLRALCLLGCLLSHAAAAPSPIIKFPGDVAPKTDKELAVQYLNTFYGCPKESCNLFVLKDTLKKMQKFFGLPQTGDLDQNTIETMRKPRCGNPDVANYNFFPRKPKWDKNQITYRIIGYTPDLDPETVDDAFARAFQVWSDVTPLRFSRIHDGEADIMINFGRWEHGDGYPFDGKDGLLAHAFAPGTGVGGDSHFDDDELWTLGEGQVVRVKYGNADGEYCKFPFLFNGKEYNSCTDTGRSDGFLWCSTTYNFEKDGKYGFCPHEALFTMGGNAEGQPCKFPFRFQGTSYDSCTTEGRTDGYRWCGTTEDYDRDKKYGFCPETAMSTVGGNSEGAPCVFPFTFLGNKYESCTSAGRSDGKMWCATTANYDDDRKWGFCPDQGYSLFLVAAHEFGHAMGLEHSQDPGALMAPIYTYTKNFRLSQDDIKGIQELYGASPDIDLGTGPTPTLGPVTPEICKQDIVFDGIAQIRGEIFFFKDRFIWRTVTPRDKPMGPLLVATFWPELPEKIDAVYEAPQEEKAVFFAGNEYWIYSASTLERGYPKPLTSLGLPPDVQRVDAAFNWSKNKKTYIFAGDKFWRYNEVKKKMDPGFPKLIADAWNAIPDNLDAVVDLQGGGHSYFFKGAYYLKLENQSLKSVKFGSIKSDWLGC

[3] = target: Matrix metalloproteinase-14 (Homo sapiens, UniProt P50281); test: Inhibition of human MMP-14
Collagenase 3 = Collagenase 3 (Homo sapiens, UniProt P45452); test: Inhibition of human MMP-13
[4] = Clearance in rat; type: ADME, organism-based; settings: in vivo
[5] = Half life in rat; type: ADME, organism-based; settings: in vivo
[6] = Bioavailability in rat; type: ADME, organism-based; settings: in vivo
[7] = Cmax in rat; type: ADME, organism-based; settings: in vivo

O=C(NO)C1(S(=O)(=O)c2ccc(OCCCn3cnc(-c4ccc(OC(F)(F)F)cc4)c3)cc2)CCOCC1
Ki (Interstitial collagenase): > 10000 nM | Ki (Neutrophil collagenase): 74 nM | Ki [1]: 1800 nM | Ki (Stromelysin-1): 59 nM | Ki (Matrilysin): 6000 nM | Ki [2]: 530 nM | Ki [3]: > 10000 nM | Ki (Collagenase 3): 1.7 nM

COc1ccc(-c2nnn(CCCOc3ccc(S(=O)(=O)C4(C(=O)NO)CCOCC4)cc3)n2)cc1
Ki (Interstitial collagenase): 5600 nM | IC50 (Neutrophil collagenase): 190 nM | IC50 [1]: 1100 nM | IC50 (Stromelysin-1): 39 nM | Ki [3]: > 10000 nM

O=C(NO)C1(S(=O)(=O)c2ccc(OCCCc3nnnn3-c3ccc(OC(F)(F)F)cc3)cc2)CCOCC1
Ki (Interstitial collagenase): > 10000 nM | Ki (Neutrophil collagenase): 72 nM | clearance [4]: 42 mL/min/kg | Ki [1]: 1700 nM | half-life [5]: 4 h | bioavailability [6]: 7.3% | Ki (Stromelysin-1): 9.9 nM | Ki (Matrilysin): 7100 nM | Ki [2]: 430 nM | Ki [3]: > 10000 nM | Ki (Collagenase 3): 1.2 nM | Cmax [7]: 3500 ng/mL

O=C(NO)C1(S(=O)(=O)c2ccc(OCCCn3nnc(-c4ccc(OC(F)(F)F)cc4)n3)cc2)CCOCC1
Ki (Interstitial collagenase): > 10000 nM | Ki (Neutrophil collagenase): 170 nM | clearance [4]: 12 mL/min/kg | Ki [1]: 1200 nM | half-life [5]: 2.4 h | bioavailability [6]: 32% | Ki (Stromelysin-1): 28 nM | Ki (Matrilysin): > 10000 nM | Ki [2]: 410 nM | Ki [3]: > 10000 nM | Ki (Collagenase 3): 0.66 nM | Cmax [7]: 61 ng/mL

COc1ccc(C(=O)N2CCN(c3ccc(S(=O)(=O)C4(C(=O)NO)CCOCC4)cc3)CC2)cc1
Ki (Interstitial collagenase): > 10000 nM | IC50 (Neutrophil collagenase): 1200 nM | IC50 [1]: 1200 nM | half-life [5]: 1.2 h | bioavailability [6]: 14% | IC50 (Stromelysin-1): 90 nM | IC50 (Matrilysin): > 10000 nM | IC50 [2]: 1300 nM | Ki [3]: > 10000 nM | IC50 (Collagenase 3): 0.7 nM | Cmax [7]: 4200 ng/mL

COCCN1CCC(C(=O)NO)(S(=O)(=O)c2ccc(OCCCn3nnc(-c4ccc(OC(F)(F)F)cc4)n3)cc2)CC1
Ki (Interstitial collagenase): > 10000 nM | Ki (Neutrophil collagenase): 8000 nM | half-life [5]: 1.3 h | bioavailability [6]: 26% | Ki (Stromelysin-1): 8.7 nM | Ki (Matrilysin): 8600 nM | Ki [3]: > 10000 nM | Ki (Collagenase 3): 0.13 nM | Cmax [7]: 1400 ng/mL

CCN1CCC(C(=O)NO)(S(=O)(=O)c2ccc(OCCCc3nc(-c4ccc(OC(F)(F)F)cc4)no3)cc2)CC1
Ki (Neutrophil collagenase): 260 nM | clearance [4]: 19 mL/min/kg | Ki [1]: 370 nM | half-life [5]: 2.4 h | bioavailability [6]: 28% | Ki (Stromelysin-1): 37 nM | Ki (Matrilysin): > 10000 nM | Ki [2]: 410 nM | Ki (Collagenase 3): 2 nM | Cmax [7]: 2200 ng/mL

Cc1ccc(-c2nnnn2CCCOc2ccc(S(=O)(=O)C3(C(=O)NO)CCOCC3)cc2)nc1
Ki (Interstitial collagenase): > 10000 nM | Ki (Neutrophil collagenase): 250 nM | clearance [4]: 63 mL/min/kg | Ki [1]: 2400 nM | half-life [5]: 4.8 h | bioavailability [6]: 5% | Ki (Stromelysin-1): 3 nM | Ki (Matrilysin): 970 nM | Ki [2]: 400 nM | Ki [3]: > 10000 nM | Ki (Collagenase 3): 0.6 nM | Cmax [7]: 3000 ng/mL

COc1ccc(C(=O)NCCCOc2ccc(S(=O)(=O)C3(C(=O)NO)CCOCC3)cc2)cc1
Ki (Interstitial collagenase): > 10000 nM | Ki (Neutrophil collagenase): 900 nM | Ki [1]: > 10000 nM | half-life [5]: 0.59 h | Ki (Stromelysin-1): 900 nM | Ki [2]: 550 nM | Ki [3]: > 10000 nM | Ki (Collagenase 3): 1.6 nM | Cmax [7]: 0.02 ng/mL

COCCN1CCC(C(=O)NO)(S(=O)(=O)c2ccc(Oc3ccc(OC(F)(F)F)cc3)cc2)CC1
Ki (Interstitial collagenase): > 10000 nM | half-life [5]: 2.9 h | bioavailability [6]: 68% | Ki (Matrilysin): 7000 nM | IC50 [2]: < 0.1 nM | IC50 (Collagenase 3): < 0.1 nM | Cmax [7]: 21900 ng/mL

O=C(NO)C1(S(=O)(=O)c2ccc(OCCCn3cncc3-c3ccc(OC(F)(F)F)cc3)cc2)CCOCC1
Ki (Interstitial collagenase): > 10000 nM | Ki (Neutrophil collagenase): 140 nM | Ki [1]: > 10000 nM | Ki (Stromelysin-1): 130 nM | Ki (Matrilysin): > 10000 nM | Ki [2]: 9200 nM | Ki [3]: > 10000 nM | Ki (Collagenase 3): 3.7 nM

Cc1ccc(-c2nnn(CCCOc3ccc(S(=O)(=O)C4(C(=O)NO)CCOCC4)cc3)n2)nc1
Ki (Interstitial collagenase): > 10000 nM | Ki (Neutrophil collagenase): 240 nM | clearance [4]: 46 mL/min/kg | Ki [1]: 370 nM | half-life [5]: 2 h | bioavailability [6]: 1.7% | Ki (Stromelysin-1): 44 nM | Ki (Matrilysin): 3000 nM | Ki [2]: 110 nM | Ki [3]: > 10000 nM | Ki (Collagenase 3): 0.66 nM | Cmax [7]: 3500 ng/mL

O=C(NO)C1(S(=O)(=O)c2ccc(OCCCc3nc(-c4ccc(OC(F)(F)F)cc4)no3)cc2)CCOCC1
Ki (Neutrophil collagenase): 180 nM | clearance [4]: 14 mL/min/kg | half-life [5]: 1.4 h | bioavailability [6]: 22% | Ki (Stromelysin-1): 31 nM | Ki (Matrilysin): > 10000 nM | Cmax [7]: 240 ng/mL
